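These data come from cells grown in 96-well plates and exposed to compound for 48 hours at five concentrations. GI50 is the concentration that inhibits growth by half.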 Activity calls are given as the source filed them. Rule as the data show it: active = GI50 up to about 1.1 µM and inactive = higher.
Key:
Test in all cases: NCI-60 cell line screen, 48 h
[1] = tested on: 786-0
[2] = tested on: A549
[3] = tested on: EKVX
[4] = tested on: HCT-116
[5] = tested on: HOP-92
[6] = tested on: Hs-578T
[7] = tested on: M14
[8] = tested on: MDA-MB-231
[9] = tested on: MDA-MB-435
[10] = tested on: NCI-H522
[11] = tested on: NCI/ADR-RES
[12] = tested on: OVCAR-3
[13] = tested on: SF-539
[14] = tested on: SK-MEL-28
[15] = tested on: SK-OV-3
[16] = tested on: SN12C
[17] = tested on: SNB-19
[18] = tested on: SNB-75
[19] = tested on: SW-620
[20] = tested on: T47D

| SMILES | GI50 [1] | GI50 [2] | GI50 [3] | GI50 [4] | GI50 [5] | GI50 [6] | GI50 [7] | GI50 [8] | GI50 [9] | GI50 [10] | GI50 [11] | GI50 [12] | GI50 [13] | GI50 [14] | GI50 [15] | GI50 [16] | GI50 [17] | GI50 [18] | GI50 [19] | GI50 [20] |
| --- | --- | --- | --- | --- | --- | --- | --- | --- | --- | --- | --- | --- | --- | --- | --- | --- | --- | --- | --- | --- |
| c1ccc(N/N=N/c2ccc(-c3nc4ccccc4o3)cc2)nc1 | 91.8 µM (inactive) | 46.7 µM (inactive) | 29.9 µM (inactive) | 39.8 µM (inactive) | 54.6 µM (inactive) | 77.8 µM (inactive) | 60.7 µM (inactive) | 36.6 µM (inactive) | 31 µM (inactive) | 43 µM (inactive) | 35.4 µM (inactive) | 27.3 µM (inactive) | 55.3 µM (inactive) | 61.5 µM (inactive) | 35.4 µM (inactive) | 56.6 µM (inactive) | 75.2 µM (inactive) | 20.4 µM (inactive) | 19.3 µM (inactive) | 25.2 µM (inactive) |
| Nc1c(Br)cc(-c2nc3ccccc3s2)cc1Br | > 100 µM (inactive) | > 100 µM (inactive) | > 100 µM (inactive) | > 100 µM (inactive) | > 100 µM (inactive) | > 100 µM (inactive) | > 100 µM (inactive) | > 100 µM (inactive) | > 100 µM (inactive) | > 100 µM (inactive) | > 100 µM (inactive) | > 100 µM (inactive) | > 100 µM (inactive) | > 100 µM (inactive) | > 100 µM (inactive) | > 100 µM (inactive) | > 100 µM (inactive) | > 100 µM (inactive) | > 100 µM (inactive) | > 100 µM (inactive) |
| C[C@H](CCC(=O)O[C@@H]1CC[C@@]2(C)C(CC[C@H]3[C@@H]4CC[C@H]([C@H](C)CCc5nc6ccccc6[nH]5)[C@@]4(C)CC[C@@H]32)C1)[C@H]1CC[C@H]2[C@@H]3CCC4C[C@H](O)CC[C@]4(C)[C@H]3CC[C@]12C (stereo not given in full) | 11.5 µM (inactive) | > 100 µM (inactive) | > 100 µM (inactive) | > 100 µM (inactive) | > 100 µM (inactive) | 0.494 µM (active) | > 100 µM (inactive) | > 67.9 µM (inactive) | > 100 µM (inactive) | 3.16 µM (inactive) | > 100 µM (inactive) | > 100 µM (inactive) | > 100 µM (inactive) | > 100 µM (inactive) | > 81.5 µM (inactive) | > 100 µM (inactive) | 5.48 µM (inactive) | 3.97 µM (inactive) | > 100 µM (inactive) | 5.04 µM (inactive) |
| O=C(NCCc1ccccn1)c1ccc2cc(C(=O)N3CC(CCl)c4ccc([N+](=O)[O-])cc43)[nH]c2c1 (stereo not given) | 9.64 µM (inactive) | > 72.9 µM (inactive) | 47.4 µM (inactive) | > 70.3 µM (inactive) | 9.46 µM (inactive) | 94.6 µM (inactive) | > 100 µM (inactive) | > 33.1 µM (inactive) | > 100 µM (inactive) | 9.82 µM (inactive) | 26.1 µM (inactive) | 5.52 µM (inactive) | > 43.4 µM (inactive) | > 100 µM (inactive) | 10.6 µM (inactive) | > 65 µM (inactive) | 12.1 µM (inactive) | 18.8 µM (inactive) | > 100 µM (inactive) | > 100 µM (inactive) |
| O=C(N/N=C/c1ccc2c(c1)CCC2)c1ccccc1O | 18.5 µM (inactive) | 21.2 µM (inactive) | 27.1 µM (inactive) | 19.4 µM (inactive) | 24.5 µM (inactive) | 22.9 µM (inactive) | 30 µM (inactive) | 19.5 µM (inactive) | 21.5 µM (inactive) | 21.5 µM (inactive) | 24.4 µM (inactive) | 16.8 µM (inactive) | 31.5 µM (inactive) | 23.5 µM (inactive) | 12.1 µM (inactive) | 23.1 µM (inactive) | 19.8 µM (inactive) | 16.8 µM (inactive) | 31.1 µM (inactive) | 25.5 µM (inactive) |
| Cc1cc(N)c2ccccc2[n+]1CCCCCCCCCC[n+]1c(C)cc(N)c2ccccc21 [DEQUALINIUM CHLORIDE] | 2.69 µM (inactive) | 0.887 µM (active) | 1.82 µM (inactive) | 1.31 µM (inactive) | 3.62 µM (inactive) | 1.96 µM (inactive) | 2.59 µM (inactive) | 1.82 µM (inactive) | 0.541 µM (active) | 0.752 µM (active) | 10.5 µM (inactive) | 2.27 µM (inactive) | 1.83 µM (inactive) | 0.879 µM (active) | 2.39 µM (inactive) | 1.45 µM (inactive) | 0.783 µM (active) | 0.986 µM (active) | 2.22 µM (inactive) | 0.948 µM (active) |
| CC(C)(Oc1ccc(Cl)cc1)C(=O)N(C(=O)N1CCN(c2ccccc2)CC1)c1ccccc1 | 28.4 µM (inactive) | 7.46 µM (inactive) | 5.83 µM (inactive) | 4.06 µM (inactive) | > 100 µM (inactive) | > 100 µM (inactive) | 45.7 µM (inactive) | > 100 µM (inactive) | 16.2 µM (inactive) | 5.57 µM (inactive) | 7.05 µM (inactive) | 26.7 µM (inactive) | 34.4 µM (inactive) | > 100 µM (inactive) | > 100 µM (inactive) | 42.3 µM (inactive) | > 100 µM (inactive) | > 100 µM (inactive) | 8.93 µM (inactive) | 5.48 µM (inactive) |

From ChEMBL document CHEMBL1201862, “PubChem BioAssay data set” (2004)
